Data on 3 compounds can be found in US20070186288A1, “Zebrafish models of acute myelogenous leukemia” (priority 2005, published 2007).

The test system of data set [1] is AML1-ETO phenotype in Tg(hsp:AML1-ETO) zebrafish embryos. In kind it is in vivo. Conditions: for percentage of AML1-ETO-expressing embryos without circulating blood: 500 μM morpholino solution injected into 1-cell stage embryos, heat treated at 4, 16, 24 hpf, scored at 44 hpf, non-injected control 90.2%. Here is the method:
The Petri dishes containing zebrafish embryos were transferred from the growth temperature of 23-28.5° C. to a 37-42° C. incubator and incubated for 1 hour before returning them back to the normal temperature. The heat treatment may be repeated three to four times over 12-hour intervals as specified below. The percentages of embryos with phenotype were scored by visual inspection of the loss of circulating blood in the embryos after 40 hpf.
The morpholino antisense oligonucleotides hAML1-MO (5′-[…]; SEQ ID NO:3), which targets the translation start codon of human AML1, and zTIS11b-MO (5′-[…]; SEQ ID NO:4), which targets the splice donor site of zebrafish TIS11b transcripts, were obtained from Gene-Tools, LLC. For microinjection, 500 μM hAML1-MO or 200 μM zTIS11b-MO in 0.3× Danieau's buffer (17 mM NaCl, 2 mM KCl, 0.12 mM MgSO4, 1.8 mM Ca(NO3)2 and 1.5 mM HEPES, pH 7.6) were prepared and injected as described (Nasevicius et al., Nat. Genet. 26:216-220, 2000).
In AML1-ETO-expressing fish, the absence of circulating cells and the accumulation of non-circulating hematopoietic cells in the ICM are readily detected by eye. Therefore, circulation may be a simple surrogate phenotype for detecting the presence or absence of the AML1-ETO phenotype. To confirm that the loss-of-circulation phenotype is dependent on the inducible expression of AML1-ETO in the transgenic zebrafish, we tested whether this phenotype can be rescued by blocking AML1-ETO expression using an antisense morpholino oligonucleotide (hAML1-MO) complementary to the translation start site of the human AML1-ETO mRNA. Homogeneous transgenic embryo clutches were obtained from crosses between homozygous Tg(hsp:AML1-ETO) and wild-type fish. These embryos were heat treated at 4, 16, and 24 hpf, and were then scored at 44 hpf. […] On the other hand, in the heat-treated Tg(hsp:AML1-ETO) fish embryos, most of the blood cells accumulate in the ICM, especially at the location close to the end of the yolk extension, and fail to enter circulation. However, injection of HAML1-MO into 1-cell stage embryos restores the circulation in the transgenic embryos.
Zebrafish embryos readily absorb small molecules from the surrounding medium, rendering them a powerful tool to assess pharmacological efficacy (Peterson et al., Methods Cell. Biol. 76:569-591, 2004; Zon et al., Nat. Rev. Drug Discov. 4:35-44, 2005). […] While ATRA is generally not very effective in differentiating t(8;21) leukemic cells, complete remission of a patient with t(8;21) translocation has been reported (Chen et al., Chin. Med. J. (Engl). 115:58-61, 2002). We tested the efficacy of ATRA in reversing the zebrafish AML1-ETO phenotype. In this experiment, we heat-shocked the embryos three times instead of four times at 37° C. in order to reduce the phenotypic penetrance in the Tg(hsp:AML1-ETO) fish embryos to around 80%. Meanwhile, ATRA was added at 24 hpf.
The upregulation of TIS11b had been hypothesized to contribute to AML pathogenesis, but this hypothesis had not been tested. To elucidate the role of TIS11b in the AML1-ETO phenotype, we knocked down TIS11b by injecting an antisense morpholino oligonucleotide complementary to the […] of the zebrafish TIS11b gene (zTIS11b-MO).

Data set [2] relates to hematopoietic cells of Tg(hsp:AML1-ETO) zebrafish embryos. Kind of data set: Cytology (Wright-Giemsa) of blood extracted from Tg(hsp:AML1-ETO) embryos. It is filed as in vivo. As to conditions: 200 μM morpholino solution injected; mild heat treatment. From the text: Blood cells were collected from anesthetized wild-type and AML1-ETO embryos at 40 hpf by transferring live fish to phosphate buffered saline containing 50 U/ml heparin, 1% bovine serum albumin, and 0.006% tricaine. Tails were excised posterior to the yolk extension (at approximately the site of the posterior ICM) using a scalpel. Blood cells were extruded from the site of excision using the blunt edge of the scalpel and collected using a micropipette.
For cytological analyses, blood cells collected from the zebrafish embryos were transferred onto glass slides by cytospin and stained by Protocol® Wright-Giemsa stain (Fisher Diagnostics) following manufacturer's instruction. To label red blood cells in the zebrafish embryos, whole-mount cytochemistry staining with […] was performed as previously described (Weinstein et al., Development 123:303-309, 1996).

“Also recorded” adds a separate entry of the source. Read-outs that look alike come from different tables or passages of the source.

Turning to `CC1=C(/C=C/C(C)=C/C=C/C(C)=C/C(=O)O)C(C)(C)CCC1` [ATRA, all-trans retinoic acid], the “percentage of embryos possessing circulation” value in data set [1] (10 pM added at 24 hpf, three 1-hour 37° C. heat treatments at 4, 16, 24 hpf, scored at 40 hpf, vehicle 20%, p=0.0085) was 36%. Moreover, the “degree of rescue at higher concentrations” value in data set [1] (concentrations above 10 pM (range tested 1 pM to 1 nM)) was “did not increase”.
On to “hAML1-MO: morpholino antisense oligonucleotide 5′-CTGGCATCTACGGGGATACGCATCA (SEQ ID NO:3), targets the translation start codon of human AML1 (all phosphorodiamidate morpholino (PMO); listed as Homo sapiens)”, for which the “percentage of AML1-ETO-expressing embryos without circulating blood” value is “less than 10%” in data set [1] and 6.7% in data set [1] (listed as HAML1-MO).
Turning to “zTIS11b-MO: morpholino antisense oligonucleotide 5′-ACTTTTCTCCATACCTTGTTGTTGA (SEQ ID NO:4), targets the splice donor site of zebrafish TIS11b transcripts (all phosphorodiamidate morpholino (PMO))”, in data set [1] (200 μM morpholino solution injected, mild heat treatment, uninjected less than 30%), the “percentage of injected Tg(hsp:AML1-ETO) embryos exhibiting the AML1-ETO (lack of circulation) phenotype” value was 98%. Besides, the “blast cells in blood of injected Tg(hsp:AML1-ETO) embryos by cytological analysis” value in data set [2] is “accumulation of hematopoietic blast cells; also recorded: abundant immature blast-like cells”.
